Data from US20230219911A1, “BENZOTHIAZOLE DERIVATIVES AND USES THEREOF” (SHENYANG PHARMACEUTICAL UNIVERSITY, priority 2020, published 2023).
Read-outs that look alike come from different tables or passages of the source.

What was measured:
[1] = target: T1, sEH enzyme (human recombinant) (Homo sapiens, UniProt P34913); experiment: in vitro IC50 of soluble epoxide hydrolase (sEH) by fluorescence analysis; assay type: biochemical
T1 construct: purchased Cayman Chemical
T1 sequence (P34913 1-555): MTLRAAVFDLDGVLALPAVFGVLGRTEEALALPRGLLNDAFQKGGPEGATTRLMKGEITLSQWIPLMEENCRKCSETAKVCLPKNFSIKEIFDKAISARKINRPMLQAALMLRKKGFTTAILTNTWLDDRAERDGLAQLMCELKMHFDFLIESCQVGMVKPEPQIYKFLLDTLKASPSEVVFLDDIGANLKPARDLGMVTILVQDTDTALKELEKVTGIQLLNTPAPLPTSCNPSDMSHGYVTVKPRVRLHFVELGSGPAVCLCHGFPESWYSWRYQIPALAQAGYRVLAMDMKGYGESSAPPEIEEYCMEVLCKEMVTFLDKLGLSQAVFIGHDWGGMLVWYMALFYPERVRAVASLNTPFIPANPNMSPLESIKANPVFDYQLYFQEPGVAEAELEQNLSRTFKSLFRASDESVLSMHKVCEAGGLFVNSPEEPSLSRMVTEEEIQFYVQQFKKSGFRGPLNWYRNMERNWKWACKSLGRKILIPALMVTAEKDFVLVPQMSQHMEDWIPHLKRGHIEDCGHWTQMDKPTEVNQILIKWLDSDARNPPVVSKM
Procedure: The benzothiazole skeleton compounds according to the above formula I of the present invention were tested for the in vitro sEH enzyme activity by fluorescence analysis. […] 12 μL of sEH enzyme (human recombinant, 0.5 mg/mL, Cayman Chemical) was diluted with 588 μL of buffer (25 mM bis-Tris, pH 7.0). […] The inhibitions at different concentrations for the compound were respectively measured in accordance with the inhibition assay, to calculate IC50.

[2] = target: T1, sEH enzyme (human recombinant); experiment: in vitro sEH enzyme activity by fluorescence analysis, single concentration inhibition; assay type: biochemical; settings: read-out: sEH % inhibition, @ 0.1 μM
Procedure: The benzothiazole skeleton compounds (concentration: 0.1 μM) according to the above formula I of the present invention were tested for the in vitro sEH enzyme activity by fluorescence analysis.
12 μL of sEH enzyme (human recombinant, 0.5 mg/mL, Cayman Chemical) was diluted with 588 μL of buffer (25 mM bis-Tris, pH 7.0). The fluorescent substrate was PHOME (cyano-(6-methoxy-naphthalen-2-yl)-methyl (3-phenyl-oxiranyl)-acetate) in DMSO (10 μM, Cayman Chemical). The compound to be tested was dissolved in 100% DMSO at a concentration of 4 μM. 185 μL of buffer (25 mM bis-Tris, pH 7.0), 5 μL of compound solution, and 5 μL of diluted sEH enzyme were added to the wells of a 96-well plate, and finally 5 μL of substrate solution was added to initiate the reaction. After incubating at 37° C. for 15 min, the fluorescence signal was measured with a microplate reader (excitation wavelength 330 nm, emission wavelength 465 nm).
Inhibition (%)=(F0−F1)/(F0)×100.

[3] = tested on: carrageenan-induced paw swelling in KM mice; experiment: Measurement of anti-inflammatory effect, carrageenan-induced paw swelling; assay type: in vivo; settings: intraperitoneal injection 1 hour before carrageenan, FIG. 3
Procedure: 1 hour in advance, the mice were intraperitoneally injected with the solutions of the compounds of Examples 12, 18, 27, and 40 (10% PEG 400, 10% Tween 80) or the blank solvent, respectively. Taking the initial paw thickness of the mice before modeling as 100%, the changes in the paw thickness of the mice were measured.

[4] = tested on: unilateral ureteral obstruction (UUO) C57BL/6J mice; experiment: Measurement of anti-fibrosis effect, unilateral ureteral obstruction (UUO) model; assay type: in vivo; settings: intraperitoneal 30 mg·kg−1·d−1, 7 days after modeling
Procedure: Male C57BL/6J mice (6 to 8 weeks old) (SPF (Beijing) Biotechnology Co., Ltd.) were divided into 3 groups: sham group, unilateral ureteral obstruction (UUO) group, and UUO+Ex. 16 compound group. After the mice were anesthetized, the left ureter was ligated and cut to create a model. In the sham group, the ureter was only isolated without ligation. The experimental animals were administrated 72 hours before modeling, and the aqueous solution of Ex. 16 compound (10% PEG400, 10% Tween 80, concentration: 9 mg/mL) was intraperitoneally injected at a dose of 30 mg·kg^−1·d^−1; and the sham group and UUO group were intraperitoneally injected with an equal volume of blank solvent. 7 days after modeling, the animals were sacrificed, and samples were taken for testing.

[5] = tested on: traumatic brain injury model SD rats; experiment: Measurement of brain injury protection, traumatic brain injury model (modified Feeney method); assay type: in vivo
Procedure: 45 male SD rats (6 to 8 weeks old) (SPF (Beijing) Biotechnology Co., Ltd.) were divided into the sham group, blank solvent group, and dosing group. 72 hours after intraperitoneally injecting the compound of Example 12 or blank solvent, a traumatic brain injury model was established using the modified Feeney method (Marmarou A, Foda M A, van den Brink W, et al., A new model of diffuse brain injury in rats. Part I: Pathophysiology and biomechanics. Journal of Neurosurgry, 1994, 80(2):291 to 300.). 23 hours after model establishment, three […] in each group were injected with Evans blue solution through the tail vein, and after 1 hour of circulation, the mice were decapitated and the brain was taken out to determine the content of Evans blue (EB), so as to study the permeability. Another three rats were taken to measure the water content in brain.

[6] = tested on: lipopolysaccharide-injected KM mice, forced swimming test; experiment: Measurement of antidepressant effect, lipopolysaccharide / forced swimming test; assay type: in vivo; settings: subcutaneous injection 23 hours after lipopolysaccharide, test 1 hour later, FIG. 7
Procedure: Male KM mice (6 to 8 weeks old) (SPF (Beijing) Biotechnology Co., Ltd.) swam in advance for 10 min, and were injected with lipopolysaccharide (0.5 mg/kg). After 23 hours, the mice were subcutaneously injected with the solutions of the compounds of Examples 12 and 40 or the blank solvent. After 1 hour, the mice were subjected to the forced swimming test for 6 min, and the immobility time (s) in later 4 minute for the mice in each group was recorded.

[7] = tested on: carrageenan inflammatory pain model SD rats; experiment: Measurement of analgesic effect, carrageenan inflammatory pain model, hot plate; assay type: in vivo; settings: intragastric suspension 15 mg/mL, 1 hour before modeling, FIG. 6
Procedure: Male SD rats (6 to 8 weeks old) (SPF (Beijing) Biotechnology Co., Ltd.) were subcutaneously injected with 50 μL of 1% λ-carrageenan saline solution at planta to prepare an inflammatory pain model (Rose T E, Morisseau C, Liu J Y, et al. 1-Aryl-3-(1-acylpiperidin-4-yl)urea inhibitors of human and murine soluble epoxide hydrolase: structure-activity relationships, pharmacokinetics, and reduction of inflammatory pain. J Med Chem, 2010, 53(19): 7067-7075). The compounds of Examples 12 and 40 were added to 0.5% sodium carboxymethylcellulose solution and ground to prepare a suspension with a concentration of 15 mg/mL. 1 hour before modeling, the rats were intragastrically administrated. The changes in the paw withdrawal time of rats were measured with a hot plate dolorimeter.

[8] = tested on: streptozotocin STZ diabetic model Balb/c mice; experiment: Measurement of hypoglycemic effect, streptozotocin diabetic model; assay type: in vivo; settings: intraperitoneal once a day, after two weeks, FIG. 4
Procedure: Male Balb/c mice (6 to 8 weeks old) (SPF (Beijing) Biotechnology Co., Ltd.) were intraperitoneally injected with streptozotocin STZ (40 mg/kg) once a day for 5 consecutive days, to prepare a diabetic model (Like A A, Rossini A A. Streptozotocin-induced pancreatic insulitis: new model of diabetes mellitus. Science, 1976, 193(4251):415-7). The mice after modeling were intraperitoneally injected with the solution of compound of Example 12 once a day.

[9] = human recombinant sEH, PHOME substrate, read-out: IC50
[10] = compound 0.1 μM, human recombinant sEH, PHOME substrate, 37° C. 15 min

IC50 [1, 9]	inhibition at 0.1 µM [2, 10]	Structure (SMILES)	IC50 [1]	further results
2.8 nM	63.9%	Nc1nc2ccc(N(CCN3CCOCC3)C(=O)Nc3ccc(C(F)(F)F)cc3)cc2s1 [Example 13, 1-(2-aminobenzo[d]thiazol-6-yl)-1-[2-(4-morpholinyl)ethyl]-3-(4-trifluoromethylphenyl)urea]	–	–
1.9 nM	27.5%	CC(=O)Nc1nc2ccc(N(CCN3CCOCC3)C(=O)Nc3ccc(Cl)cc3)cc2s1 [Example 30, 1-(2-acetamidobenzo[d]thiazol-6-yl)-1-[2-(4-morpholinyl)ethyl]-3-(4-chlorophenyl)urea]	–	–
2.6 nM	69%	CCOC(=O)CNc1nc2ccc(N(CCN3CCOCC3)C(=O)Nc3ccc(Cl)cc3)cc2s1 [Example 29]	–	–
0.25 nM	79.7%	Nc1nc2ccc(N(CCN3CCOCC3)C(=O)Nc3ccc(F)c(Br)c3)cc2s1 [Example 16, 1-(2-aminobenzo[d]thiazol-6-yl)-1-[2-(4-morpholinyl)ethyl]-3-(3-bromo-4-fluorophenyl)urea]	–	level of EETs in mouse kidney tissue ([4]; FIG. 1): maintain the level of EETs; collagen deposition ([4]; FIG. 2): reduce the collagen deposition; fibrotic areas ([4]; FIG. 2): decrease the fibrotic areas
9.2 nM	59.9%	O=C(Nc1ccc(Cl)cc1)Nc1ccc2nc(NC(=O)Nc3ccc(Cl)cc3)sc2c1 [Example 7, 1,1′-(benzo[d]thiazol-2,6-diyl)bis[3-(4-chlorophenyl)urea]]	–	–
27.1 nM	70.4%	CN(C)CCN(C(=O)Nc1ccc(Cl)cc1)c1ccc2nc(N)sc2c1 [Example 25, 1-(2-aminobenzo[d]thiazol-6-yl)-1-[2-(N,N-dimethylamino)ethyl]-3-(4-chlorophenyl)urea]	–	–

The next lines start with the molecule.

Structure (SMILES)	IC50 [1, 9]	inhibition at 0.1 µM [2, 10]	IC50 [1]	further results
Nc1nc2ccc(NC(=O)Nc3ccc(Cl)cc3)cc2s1 [Example 1, 1-(2-aminobenzo[d]thiazol-6-yl)-3-(4-chlorophenyl)urea]	–	76.1%	4.8 nM	–
Nc1nc2ccc(NC(=O)NC34C[C@H]5C[C@@H](C3)C[C@@H](C4)C5)cc2s1 [Example 4, 1-(2-aminobenzo[d]thiazol-6-yl)-3-[(3s,5s,7s)-adamantan-1-yl]urea]	–	77.3%	122 nM	–
O=C(Cc1ccccc1)Nc1nc2ccc(N(CCN3CCOCC3)C(=O)Nc3ccc(Cl)cc3)cc2s1 [Example 27, 1-(2-phenylacetamidobenzo[d]thiazol-6-yl)-1-[2-(4-morpholinyl)ethyl]-3-(4-chlorophenyl)urea]	–	79.4%	0.02 nM	carrageenan-induced paw swelling (paw thickness) [3]: significantly inhibit; effect on paw swelling compared with celecoxib [3]: better than that of celecoxib
Nc1nc2ccc(N(CCN3CCOCC3)C(=O)Nc3ccc(Cl)cc3)cc2s1 [Example 12, 1-(2-aminobenzo[d]thiazol-6-yl)-1-[2-(4-morpholinyl)ethyl]-3-(4-chlorophenyl)urea]	4.1 nM	–	–	Water content in brain (%) ([5]; 30 mg/kg intraperitoneal, 72 hours before traumatic brain injury, * p < 0.05 vs blank solvent group): 79.46 ± 0.68 * %; EB content (μg/g) ([5]; 30 mg/kg intraperitoneal, Evans blue in brain, 24 hours after model, * p < 0.05 vs blank solvent group): 25.23 ± 1.63 * μg/g; water content in brain (in words) ([5]; traumatic brain injury rats, text summary of Table 4): reduce the water content; carrageenan-induced paw swelling (paw thickness) [3]: significantly inhibit; effect on paw swelling compared with celecoxib [3]: better than that of celecoxib; immobility time in forced swimming [6]: significantly reduce the immobility time; paw withdrawal time in hot plate dolorimeter [7]: significantly prolong the paw withdrawal time; blood glucose [8]: significantly lower than that of the model group; glucose tolerance [8]: higher than that of the model group; inhibition at 0.1 µM [2]: 68.7%
CCc1ccc(NC(=O)N(CCN2CCOCC2)c2ccc3nc(N)sc3c2)cc1 [Example 18, 1-(2-aminobenzo[d]thiazol-6-yl)-1-[2-(4-morpholinyl)ethyl]-3-(4-ethylphenyl)urea]	–	84.7%	6.7 nM	carrageenan-induced paw swelling (paw thickness) [3]: significantly inhibit; effect on paw swelling compared with celecoxib [3]: better than that of celecoxib
